Laboratory results: patent US6680003B2, “Chiral doping agents with variable spiral pitch induction and application thereof to a reflective color display” (Asulab S.A., priority 2000, dated 2004)

Test: Solubility in a nematic

Solubility s: 4.0% < s % mass
Substance: 2-[4′-(6-Acryloyloxyhexyloxy)-2′.5′-methylazophenyl-4-carbonyloy]—5-[4-(6-Acryloyloxyhexyloxy)benzoyl]-1.4:3.6-D-glucitol [Compound 209sf]
